Test results published in PubChem BioAssay (NCI).
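Step 1: Grow cells in 96-well plates. Step 2: Expose to compound for 48 hours at 5 concentrations. Step 3: Interpolate endpoints linearly; if unreached, use highest concentration. GI50 is the concentration that inhibits growth by half. Definition used: TGI = concentration required for complete inhibition of growth.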

What was measured:
Assay in all cases: DTP human tumour cell line panel, 48 h
[1] = system: SK-MEL-5 melanoma
[2] = system: OVCAR-4 ovarian
[3] = system: TK-10 renal
[4] = system: SK-OV-3 ovarian
[5] = system: HT29 colon
[6] = system: HCT-116 colon
[7] = system: SF-268 CNS
[8] = system: EKVX NSCLC
[9] = system: SN12C renal
[10] = system: K-562 leukemia

Structure (SMILES) | TGI [1] [µM] | TGI [2] [µM] | TGI [3] [µM] | TGI [4] [µM] | TGI [5] [µM] | TGI [6] [µM] | TGI [7] [µM] | TGI [8] [µM] | TGI [9] [µM] | TGI [10] [µM] | GI50 [10] [µM] | GI50 [1] [µM] | GI50 [2] [µM] | GI50 [4] [µM] | GI50 [5] [µM] | GI50 [6] [µM] | GI50 [7] [µM] | GI50 [3] [µM] | GI50 [8] [µM]
O=c1c(-c2ccccc2Cl)coc2cc(F)ccc12 | > 100 | > 100 | > 100 | > 100 | > 100 | > 100 | > 100 | > 100 | > 100 | – | – | – | – | – | – | – | – | – | –
Nc1nc(N)c2nnn(C[C@H]3CC[C@@H](CO)C3)c2n1 | – | – | > 100 | > 100 | > 100 | > 100 | > 100 | > 100 | 93.3 | > 100 | – | – | – | – | – | – | – | – | –
O=C1CCCCC[C@]12SC[C@H]1CON=C12 | > 100 | > 100 | > 100 | > 100 | > 100 | > 100 | – | > 100 | 57.6 | > 100 | – | – | – | – | – | – | – | – | –
O=C(NCCCCNCCCNC(=O)c1cc(-c2ccccc2)nc2ccccc12)c1cc(-c2ccccc2)nc2ccccc12 | 2.75 | – | 2.93 | – | 3.1 | 3.2 | – | 3.52 | 3.38 | – | – | – | – | – | – | – | – | – | –
O=C1OC(C2OC(=O)c3cc(O)c(O)c(O)c3-c3c(O)c(O)c4oc(=O)c5c(c(O)c(O)c6oc(=O)c3c4c65)-c3c(cc(O)c(O)c3O)C(=O)OCC2O)C2OC(=O)c3c(c(O)c(O)c(O)c3[C@H]2O)-c2c1cc(O)c(O)c2O (some centres undefined) | 33.9 | 46 | – | > 100 | 31.6 | 38.8 | 78.5 | 41 | 36.4 | 42.5 | – | – | – | – | – | – | – | – | –
CCn1c(-c2ccc(C)cc2)cs/c1=N\C(P(=O)(O)O)P(=O)(O)O | > 100 | – | > 100 | > 100 | > 100 | > 100 | > 100 | > 100 | – | > 100 | – | – | – | – | – | – | – | – | –
CC1C(c2ccc3c(c2)OCO3)c2cc3c(cc2OC1N1CCCCC1)OCO3 (centres undefined) | > 100 | – | > 100 | – | > 100 | > 100 | > 100 | > 100 | > 100 | > 100 | – | – | – | – | – | – | – | – | –
COc1ccc(CCCC(=O)O)c(C)c1 | > 100 | > 100 | > 100 | – | > 100 | > 100 | > 100 | > 100 | > 100 | > 100 | – | – | – | – | – | – | – | – | –
COc1ccc(Cl)cc1NC(=O)c1c(NC(=O)C(F)(F)C(F)(F)F)sc2c1CCCCC2 | 0.585 | 5.64 | – | 6.89 | > 100 | 5.67 | > 100 | – | – | > 100 | 0.663 | 0.242 | 1.57 | 2.18 | 2.48 | 1.3 | 1.09 | – | –
CN(C)CCNC(=O)c1ccc(NCCCN(C)CCCNc2ccc(C(=O)NCCN(C)C)c3[nH]c4ccc([N+](=O)[O-])cc4c(=O)c23)c2c(=O)c3cc([N+](=O)[O-])ccc3[nH]c12 | 1.14 | 1.55 | 1.38 | 1.35 | 1.02 | 0.644 | – | – | 0.668 | 1.83 | – | – | – | – | – | – | – | – | –
CC(=O)O[C@H]1C(=O)[C@@]2(C)[C@H]([C@H](OC(=O)c3ccccc3)[C@]3(O)C[C@H](OC(=O)[C@H](O)[C@@H](NC(=O)CC(C)C)c4ccccc4)C(C)=C1C3(C)C)[C@]1(OC(C)=O)CO[C@@H]1C[C@@H]2O | > 10 | > 10 | > 10 | – | 0.0296 | > 10 | > 10 | > 10 | > 10 | > 10 | – | – | – | – | – | – | – | – | –
Nc1nc(N)c2nc(-c3ccco3)cnc2n1 | > 100 | – | > 100 | > 100 | > 100 | > 100 | > 100 | > 100 | > 100 | > 100 | – | – | – | – | – | – | – | – | –
COc1ccc(C2SCC(=O)N2NC(=O)C(C)Oc2ccccc2Cl)cc1 (centres undefined) | 65.6 | > 100 | > 100 | – | > 100 | > 100 | > 100 | > 100 | > 100 | > 100 | – | – | – | – | – | – | – | – | –
COc1cc2cc(C(=O)N3CC(CCl)c4c3cc(N(C)C)c3ccccc43)[nH]c2c(OC)c1OC (centres undefined) | 0.0241 | 0.114 | > 100 | 0.0395 | – | > 100 | 0.016 | 0.0245 | 0.235 | 0.0477 | – | – | – | – | – | – | – | – | –
Cc1cc(O)c(/C=N/c2nc(-c3cccc([N+](=O)[O-])c3)cs2)c(=O)o1 | > 100 | > 100 | 26.6 | > 100 | > 100 | > 100 | – | > 100 | > 100 | – | – | – | – | – | – | – | – | – | –
CSc1nc(O)c(/C=C2\C=Nc3ccccc32)[nH]1 | > 100 | > 100 | > 100 | > 100 | > 100 | > 100 | > 100 | – | > 100 | > 100 | – | – | – | – | – | – | – | – | –
O=C(CN1CCOCC1)CC(O)(C(F)(F)F)C(F)(F)F | > 100 | > 100 | > 100 | > 100 | – | > 100 | – | > 100 | – | > 100 | – | – | – | – | – | – | – | – | –
CCOC(=O)/C=C(\N=P(c1ccccc1)(c1ccccc1)c1ccccc1)C(F)(F)C(F)(F)C(F)(F)C(F)(F)C(F)(F)F | > 100 | > 100 | > 100 | > 100 | > 100 | > 100 | > 100 | – | > 100 | > 100 | – | – | – | – | – | – | – | – | –
CCOC(=O)c1c(C)[nH]c(/C=C2\N=C(c3ccc[nH]3)C=C2OC)c1C | 0.0698 | 2.81 | 1.75 | 3.71 | 1.19 | – | – | 3.81 | – | 1.53 | 0.0504 | 0.0231 | 0.135 | 0.413 | < 0.01 | < 0.0107 | – | 0.0307 | 0.469
CSc1nncc2[nH]cnc12 | > 100 | – | > 100 | – | > 100 | > 100 | > 100 | > 100 | > 100 | > 100 | – | – | – | – | – | – | – | – | –
COC(=O)c1ccc(CCc2cc(O)c(Br)cc2O)cc1 | 23.7 | 23.2 | 27.6 | > 62.5 | 32.8 | 14.3 | 34.1 | 31.3 | 28.3 | – | – | – | – | – | – | – | – | – | –
